The text below walks through data of ChEMBL document CHEMBL3112551, “Synthesis of 2H-1,3-benzoxazin-4(3H)-one derivatives containing indole moiety: their in vitro evaluation against PDE4B” (Bioorg Med Chem Lett, 2014).

The target of experiment [1] is 3',5'-cyclic-AMP phosphodiesterase 4B (Homo sapiens) (UniProt Q07343). In words: Inhibition of PDE4B (unknown origin) expressed in HEK293 cells assessed as increase in forskolin-stimulated cAMP level at 30 uM preincubated for 30 mins followed by forskolin-stimulation measured after 4 hrs by luciferase reporter gene assay relative to control. The experiment is classed as functional, cell-based. In general terms: Changes in cAMP serve as a functional read-out for many G protein-coupled receptors.
3',5'-cyclic-AMP phosphodiesterase 4B (Homo sapiens), sequence (Q07343 whole entry): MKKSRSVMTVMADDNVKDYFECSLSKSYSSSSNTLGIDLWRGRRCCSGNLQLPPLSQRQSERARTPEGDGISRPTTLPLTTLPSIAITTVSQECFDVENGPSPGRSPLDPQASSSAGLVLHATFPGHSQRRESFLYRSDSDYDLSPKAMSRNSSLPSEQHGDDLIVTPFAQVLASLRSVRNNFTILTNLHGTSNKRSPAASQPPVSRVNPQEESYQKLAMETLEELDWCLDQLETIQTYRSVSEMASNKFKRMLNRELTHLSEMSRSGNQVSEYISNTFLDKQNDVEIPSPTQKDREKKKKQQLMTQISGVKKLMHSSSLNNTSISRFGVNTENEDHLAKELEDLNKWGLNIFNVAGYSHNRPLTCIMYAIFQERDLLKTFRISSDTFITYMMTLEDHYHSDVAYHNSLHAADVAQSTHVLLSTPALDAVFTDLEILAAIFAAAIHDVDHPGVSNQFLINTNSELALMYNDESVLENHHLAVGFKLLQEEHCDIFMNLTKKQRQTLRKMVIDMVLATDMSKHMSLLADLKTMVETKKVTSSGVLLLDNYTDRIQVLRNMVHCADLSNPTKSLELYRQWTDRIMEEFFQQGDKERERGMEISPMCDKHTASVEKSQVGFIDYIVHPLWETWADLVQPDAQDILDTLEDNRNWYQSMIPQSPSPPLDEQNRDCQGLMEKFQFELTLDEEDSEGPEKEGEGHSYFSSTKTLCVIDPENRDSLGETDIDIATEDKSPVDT

The target is the same in experiment [2]. Description: Inhibition of PDE4B (unknown origin) expressed in HEK293 cells assessed as increase in forskolin-stimulated cAMP level preincubated for 30 mins followed by forskolin-stimulation measured after 4 hrs by luciferase reporter gene assay. The experiment is classed as functional, cell-based.

The structures appear in SMILES notation. Calls of active or inactive are those of the source. The rule behind the calls is not given here.

With `CC(=O)c1ccc2c(c1)cc(COCCN1COc3ccccc3C1=O)n2S(C)(=O)=O`, in experiment [1], the inhibition entry was “inactive”.

In the case of `CS(=O)(=O)n1c(COCCN2COc3ccccc3C2=O)cc2cc(C(F)(F)F)ccc21`, the inhibition entry in experiment [1] is “Active”.

For the molecule `CS(=O)(=O)n1c(COCCN2COc3ccccc3C2=O)cc2cc(F)ccc21`, the inhibition result in experiment [1] is “Active”. As for `COc1ccc(C2CNC(=O)C2)cc1OC1CCCC1` (centres undefined), the fold change (FC) in experiment [1] was more than 7. In the case of `CS(=O)(=O)n1c(COCCN2COc3ccccc3C2=O)cc2cc(C#N)ccc21`, the inhibition entry in experiment [1] is “Active”. Take `O=C1c2ccccc2OCN1CCOCc1cc2ccccc2o1`: the inhibition entry in experiment [1] is “Active”. Regarding `CS(=O)(=O)n1c(COCCN2COc3ccccc3C2=O)cc2cc([N+](=O)[O-])ccc21`, the fold change (FC) in experiment [1] was more than 5. The inhibition result in experiment [2] was “Dose-dependent effect”. As to `CS(=O)(=O)n1c(COCCN2COc3ccccc3C2=O)cc2cc(Cl)ccc21`, the inhibition result in experiment [1] is “Active”.
